In paper PMC11209693 (ACS Omega, 2024):

Columns and labels:
[1] = target: T1, pancreatic lipase (Homo sapiens, UniProt P16233); assay: microscale thermophoresis; format: binding
T1 sequence (P16233 17-465): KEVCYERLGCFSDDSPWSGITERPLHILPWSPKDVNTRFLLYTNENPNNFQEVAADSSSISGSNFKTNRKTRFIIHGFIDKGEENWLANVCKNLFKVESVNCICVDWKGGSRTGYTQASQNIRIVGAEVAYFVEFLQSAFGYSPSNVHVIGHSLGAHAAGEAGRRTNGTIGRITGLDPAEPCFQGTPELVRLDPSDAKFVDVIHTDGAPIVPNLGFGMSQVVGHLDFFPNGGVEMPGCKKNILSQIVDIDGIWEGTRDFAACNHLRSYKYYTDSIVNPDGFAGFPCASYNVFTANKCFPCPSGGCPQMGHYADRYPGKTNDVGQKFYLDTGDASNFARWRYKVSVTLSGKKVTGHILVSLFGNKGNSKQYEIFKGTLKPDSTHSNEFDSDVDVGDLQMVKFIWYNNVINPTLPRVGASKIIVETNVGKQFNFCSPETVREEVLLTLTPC

[2] = target: T2, pancreatic lipase (Sus scrofa, UniProt P00591); assay: in vitro pancreatic lipase inhibition assay; format: biochemical
T2 sequence (P00591 1-450): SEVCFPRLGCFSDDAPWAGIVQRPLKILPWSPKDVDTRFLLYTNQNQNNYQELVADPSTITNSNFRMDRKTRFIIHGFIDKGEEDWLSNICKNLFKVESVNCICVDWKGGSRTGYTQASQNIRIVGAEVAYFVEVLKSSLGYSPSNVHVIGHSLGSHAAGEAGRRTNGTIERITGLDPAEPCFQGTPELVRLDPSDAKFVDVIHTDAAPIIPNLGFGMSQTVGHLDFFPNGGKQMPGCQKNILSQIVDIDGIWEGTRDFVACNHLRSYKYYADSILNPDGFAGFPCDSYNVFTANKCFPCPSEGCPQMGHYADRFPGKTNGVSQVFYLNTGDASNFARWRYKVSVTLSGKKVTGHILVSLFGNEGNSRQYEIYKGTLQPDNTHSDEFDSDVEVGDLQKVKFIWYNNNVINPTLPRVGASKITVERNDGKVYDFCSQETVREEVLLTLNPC

Kd [1] [µM]	IC50 [2] [µM]	SMILES
23.5		COc1cc(/C=C/C(=O)CC(=O)/C=C/c2ccc(O)c(OC)c2)ccc1O [A6, curcumin, reference compound]
2.91	42.8	O=C(CCc1ccc(O)cc1)CC(=O)CCc1ccc(O)cc1 [C4, 1,7-bis(4-hydroxyphenyl)heptane-3,5-dione]
18.2	98.6	COc1cc(CCC(=O)CC(=O)CCc2ccc(O)c(OC)c2)ccc1O [C6, 1,7-bis(4-hydroxy-3-methoxyphenyl)heptane-3,5-dione]
